Structures are written as SMILES. Values after ≈ are worked out from the molar mass of the structure shown. “Also recorded” adds a separate entry of the source. Where a SMILES comes first, the peptide text is derived from it. [ ]: non-standard residue; d: D form. The star is where a group is joined. Palmitoyl = CCCCCCCCCCCCCCCC(=O)*; Myristoyl = CCCCCCCCCCCCCC(=O)*; Lauroyl = CCCCCCCCCCCC(=O)*; Dab = NCC[C@H](N)C(=O)O

Series [1] deals with Enterococcus faecalis ATCC 14506. Format: cell-based. The note with it: LB medium, 24 h at 30°C, OD 600 nm not greater than 0.05. How it is done:
(§1) Typhimurium TT622, and Yersinia enterocolitica PCM 2081. All strains were cultured in LB (lysogenic broth) medium.
(§2) The test compounds were dissolved in water. […] Data were obtained from three independent experiments.

Series [2] deals with Escherichia coli ST2-8624 O157:H7. It counts as cell-based. The note with it: LB medium, 24 h at 30°C, OD 600 nm not greater than 0.05. The procedure: as §1, §2
Series [3] deals with Klebsiella pneumoniae PCM 1. Format: cell-based. The note with it: LB medium, 24 h at 30°C, OD 600 nm not greater than 0.05. The procedure:
as §1, §2

Series [4] deals with Pseudomonas aeruginosa PAO1 PCM 499. It counts as cell-based. The note with it: LB medium, 24 h at 30°C, OD 600 nm not greater than 0.05. The procedure: as §1, §2
For series [5], the system named is Salmonella sv. Typhimurium TT622. In words: Determination of the minimal inhibitory concentration (MIC). It counts as cell-based. The note with it: LB medium, 24 h at 30°C, OD 600 nm not greater than 0.05. The procedure: as §1, §2
The test system of series [6] is Yersinia enterocolitica PCM 2081. The note with it: LB medium, 24 h at 30°C, OD 600 nm not greater than 0.05. The text has this:
All bacterial strains were obtained from the Polish Collection of Microorganisms (PCM) or the American Type Culture Collection (ATCC). Gram-positive bacteria strains: Staphylococcus aureus ATCC 29213, Staphylococcus epidermidis ATCC 12228, and Enterococcus faecalis ATCC 14506. Gram-negative bacteria strains: Escherichia coli ST2-8624 O157:H7, Pseudomonas aeruginosa PAO1 PCM 499, Klebsiella pneumoniae PCM 1, Salmonella sv. Typhimurium TT622, and Yersinia enterocolitica PCM 2081. All strains were cultured in LB (lysogenic broth) medium.
10 mL of LB medium was inoculated with material from a single colony and cultured at 30°C overnight with shaking. Thereafter, the optical density of the overnight cultures (at 600 nm) was adjusted to 0.05 by dilution in a fresh portion of LB medium. The test compounds were dissolved in water. Serial dilutions of compounds were prepared in LB medium ranging from 5 to 50 µg/mL (final concentrations). The experiment was performed by adding 100 µL of each of the prepared dilutions to 100 µL of the diluted overnight bacterial culture in the wells of a 96-well titration plate. […] Optical density measurements were performed using TECAN Sunrise plate reader. Data were obtained from three independent experiments.

For series [7], the system named is Horse red blood cells. Format: cell-based. The procedure:
(§3) Defibrinated sheep or horse blood was washed three times in PBS buffer (137 mM NaCl, 2.7 mM KCl, 8 mM Na2HPO4, 2 mM KH2PO4, pH 7.4) and diluted to obtain 2% (v/v) preparation of red blood cells (RBC). […] The experiment was performed by adding 190 µL of 2% RBC preparation to 10 µL of each of the prepared lipopeptide dilutions in the wells of a 96-well titer plate. As a positive control, Triton X-100 (2% final concentration) was used, instead of test compound preparations, and PBS buffer was used as a negative control. The samples were then incubated for 30 min at 30°C with shaking. After this time, the plate was centrifuged (1200 rpm) and 150 µL of the supernatant was transferred per well to another titration plate and the absorbance at 415 nm was measured using TECAN Sunrise plate reader. Based on the obtained results, the concentration of lipopeptides was determined at which up to 50% of hemolysis occurs in comparison with the positive control (HC50). Data were obtained from three independent experiments. The measurement results are shown in Table 3 and in the form of graphs in Figs. 7 and 8.

The subject of series [8] is Sheep red blood cells. It counts as cell-based. The procedure:
as §3

Series [9] relates to Klebsiella pneumoniae PCM 1. The series is described as follows: Lipopeptide effect on the bacterial growth dynamics. The note with it: OD 600 nm every 60 min for 6 h after 2 h pre-incubation. It counts as cell-based. The procedure:
as §1
(§4) The effect of different concentrations of the test compounds on the bacterial growth was tested on 3 Gram-negative bacterial strains: Klebsiella pneumoniae PCM 1, Pseudomonas aeruginosa PAO1 PCM 499, and Yersinia enterocolitica PCM 2081 and one Gram-positive strain: Staphylococcus aureus ATCC 29213. The experiment was carried out in a similar way to the MIC determination, but in this case the diluted overnight cultures were pre-incubated for 2 h before adding diluted lipopeptide preparations. The bacterial growth was then monitored by measuring the optical density of the culture at 600 nm every 60 min for 6 h. Data were obtained from three independent experiments. The measurement results are shown as graphs in Figs. 1-3.

Series [10] has as its system Pseudomonas aeruginosa PAO1 PCM 499. Described as above. It counts as cell-based. The note with it: OD 600 nm every 60 min for 6 h after 2 h pre-incubation. How it is done: as §1, §4
In series [11] the test system is Yersinia enterocolitica PCM 2081. The series is described as above. Format: cell-based. The note with it: OD 600 nm every 60 min for 6 h after 2 h pre-incubation. The procedure: as §1, §4
The subject of series [12] is Staphylococcus aureus ATCC 29213. The note with it: LB medium, 24 h at 30°C, OD 600 nm not greater than 0.05.
In series [13] the test system is Staphylococcus epidermidis ATCC 12228. The note with it: LB medium, 24 h at 30°C, OD 600 nm not greater than 0.05.

One may read the MIC as the least concentration at which growth counts as inhibited. A high value points to a less susceptible organism. With `CCCCCCCCCCCC(=O)N[C@H](Cc1ccccc1)C(=O)N[C@@H](CCN)C(=O)N[C@@H](CCN)C(=O)N[C@@H](CC(C)C)C(N)=O` [C12-fXXL, CH3(CH2)10C(O)-D-Phe-Dab-Dab-Leu-NH2] (Lauroyl-[dF][Dab][Dab]L-NH2), the MIC is reported as 30 µg/mL (≈ 45.5 µM) in series [1]; 50 µg/mL (≈ 75.8 µM) in series [2]; 20 µg/mL (≈ 30.3 µM) in series [3]; 20 µg/mL (≈ 30.3 µM) in series [4]; “n.d. (n.d. = not determined, i.e., the MIC value was greater than 50 µg/mL)” in [5]; 20 µg/mL (≈ 30.3 µM) in series [6]. In addition, the MIC in [12] and in series [13] was 5 µg/mL (≈ 7.58 µM) throughout. The HC50 in [7] and in [8] was 30 µg/mL < HC50< 40 µg/mL throughout. Besides, the “effect on the bacterial growth dynamics” value in series [9], in series [10] and in series [11] was “slowed down the bacterial growth dynamics at much lower concentrations than that of the C16-fXXL lipopeptide” in each case.
Take `CCCCCCCCCCCCCC(=O)N[C@H](Cc1ccccc1)C(=O)N[C@@H](CCN)C(=O)N[C@@H](CCN)C(=O)N[C@@H](CC(C)C)C(N)=O` [C14-fXXL, CH3(CH2)12C(O)-D-Phe-Dab-Dab-Leu-NH2] (Myristoyl-[dF][Dab][Dab]L-NH2): the MIC in [1] is recorded as 30 µg/mL (≈ 43.6 µM); in series [2], “n.d. (n.d. = not determined, i.e., the MIC value was greater than 50 µg/mL)”; in [3] it was 20 µg/mL (≈ 29.1 µM); in series [4], 20 µg/mL (≈ 29.1 µM); in series [5], “n.d. (n.d. = not determined, i.e., the MIC value was greater than 50 µg/mL)”; in series [6], 10 µg/mL (≈ 14.5 µM). Also, the MIC in [12] and in series [13] was 5 µg/mL (≈ 7.27 µM) in each case. Also, the HC50 in series [7] and in series [8] was 30 µg/mL < HC50< 40 µg/mL each time. Also, the “effect on the bacterial growth dynamics” value in [9] is on record as “slowed down the bacterial growth dynamics at much lower concentrations than that of the C16-fXXL lipopeptide”; in [10], “equally strong effect of slowing down the Gram-negative bacterial growth dynamics; also recorded: slowed down the bacterial growth dynamics at much lower concentrations than that of the C16-fXXL lipopeptide”; in series [11] it was “slowed down the bacterial growth dynamics at much lower concentrations than that of the C16-fXXL lipopeptide”.
For the compound `CCCCCCCCCCCCCCCC(=O)N[C@H](Cc1ccccc1)C(=O)N[C@@H](CCN)C(=O)N[C@@H](CCN)C(=O)N[C@@H](CC(C)C)C(N)=O` [C16-fXXL, CH3(CH2)14C(O)-D-Phe-Dab-Dab-Leu-NH2, reference compound] (Palmitoyl-[dF][Dab][Dab]L-NH2), the MIC entry is reported as “n.d. (n.d. = not determined, i.e., the MIC value was greater than 50 µg/mL)” in series [1]; “no activity” in [2]; “n.d. (n.d. = not determined, i.e., the MIC value was greater than 50 µg/mL)” in series [3]; “n.d. (n.d. = not determined, i.e., the MIC value was greater than 50 µg/mL)” in series [4]; “n.d. (n.d. = not determined, i.e., the MIC value was greater than 50 µg/mL)” in series [5]; 30 µg/mL (≈ 41.9 µM) in [6]. The minimal inhibitory concentration (MIC) in [12] and in series [13] was 5 µg/mL (≈ 6.98 µM) throughout. Further, the HC50 in series [7] and in series [8] was 30 µg/mL < HC50< 40 µg/mL throughout.

Source of the values: EP4038084B1, “LIPOPEPTIDES, PHARMACEUTICAL COMPOSITION, COSMETIC COMPOSITION, AND LIPOPEPTIDES FOR USE AS A DRUG” (priority 2019, dated 2021).
